Our source for the activity and Km values is article PMC6935173, “Characterization of a vacuolar sucrose transporter, HbSUT5, from Hevea brasiliensis: involvement in latex production through regulation of intracellular sucrose transport in the bark and laticifers” (BMC Plant Biology, 2019).

Data set [1] addresses T1, HbSUT5 (Hevea brasiliensis, UniProt A0T058).
T1 construct: gene SUT5; ORF primers give start MAIPQ
T1 sequence (A0T058 1-498): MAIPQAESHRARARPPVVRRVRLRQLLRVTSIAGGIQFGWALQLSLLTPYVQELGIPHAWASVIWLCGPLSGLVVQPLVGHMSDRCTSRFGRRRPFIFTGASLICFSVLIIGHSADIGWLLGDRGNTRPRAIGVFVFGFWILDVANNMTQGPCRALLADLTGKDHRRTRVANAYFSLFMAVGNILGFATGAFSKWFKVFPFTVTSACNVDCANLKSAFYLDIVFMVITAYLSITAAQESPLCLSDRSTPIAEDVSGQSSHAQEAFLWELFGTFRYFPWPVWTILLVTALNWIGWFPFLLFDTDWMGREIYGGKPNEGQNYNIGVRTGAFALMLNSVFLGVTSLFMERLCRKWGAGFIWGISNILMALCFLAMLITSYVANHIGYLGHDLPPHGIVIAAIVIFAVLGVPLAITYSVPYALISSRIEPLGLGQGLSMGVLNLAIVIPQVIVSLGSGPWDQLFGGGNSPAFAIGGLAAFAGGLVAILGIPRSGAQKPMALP
In words: competition with […]-sucrose uptake in yeast SEY6210. In kind it is cell-based.

Substrate in data set [2]: OC[C@H]1O[C@@](CO)(O[C@H]2O[C@H](CO)[C@@H](O)[C@H](O)[C@H]2O)[C@@H](O)[C@@H]1O
Kind of data set: cells, lysate or membranes. In kind it is cell-based, Hevea brasiliensis. Conditions: pH 5.5, 0.5-8 mM sucrose, labelled compound, H+ symport, whole yeast cells.

In data set [1], `OC[C@H]1O[C@H](O[C@H]2[C@H](O)[C@@H](O)C(O)O[C@@H]2CO)[C@H](O)[C@@H](O)[C@@H]1O` (some centres unmarked) [Maltose] had an activity at 10000 µM of 44 ± 3.4%.

B1: HbSUT5 (Hevea brasiliensis) (protein)
chain: T1 sequence (A0T058 1-498)
notes: ORF primers give start MAIPQ
As for B1, the Km in data set [2] worked out at 2030 µM.

As usually defined, the Km is the concentration of substrate that gives half-maximal velocity.
